From patent US9845326B2, “Substituted 3,4-dihydropyrrolo[1,2-A]pyrazines as beta-secretase (BACE) inhibitors” (priority 2011, dated 2017) come the findings set out here.

Each structure is given as a SMILES string. Some results are limits rather than exact numbers.

For assay [1], the target named is BACE1 (Homo sapiens, UniProt P56817). Description: Biochemical FRET based assay. To be noted: Biochemical FRET based assay pIC50, recombinant BACE1 1 μg/ml, 120 min, room temperature, pH 5.0. The text has this: This assay is a Fluorescence Resonance Energy Transfer Assay (FRET) based assay. The substrate for this assay is an APP derived 13 amino acids peptide that contains the ‘Swedish’ Lys-Met/Asn-Leu mutation of the amyloid precursor protein (APP) β-secretase cleavage site. This substrate also contains two fluorophores: (7-methoxy-coumarin-4-yl) acetic acid (Mca) is a fluorescent donor with excitation wavelength at 320 nm and emission at 405 nm and 2,4-Dinitrophenyl (Dnp) is a proprietary quencher acceptor. […] Upon cleavage by BACE1, the fluorophore Mca is separated from the quenching group Dnp, restoring the full fluorescence yield of the donor. The increase in fluorescence is linearly related to the rate of proteolysis (Koike H et al. J. Biochem. 1999, 126, 235-242).
Briefly in a 384-well format recombinant BACE1 protein in a final concentration of 1 μg/ml is incubated for 120 min at room temperature with 10 μm substrate in incubation buffer (40 mM Citrate buffer pH 5.0, 0.04% PEG, 4% DMSO) in the absence or presence of compound. Next the amount of proteolysis is directly measured by fluorescence measurement at T=0 and T=120 (excitation at 320 nm and emission at 405 nm). Results are expressed in RFU, as difference between T120 and T0
From this an IC50 value (inhibitory concentration causing 50% inhibition of activity) can be obtained.

Assay [2] has as its system Aβ42. Description: Cellular αlisa assay in SKNBE2 cells, Aβ42. It counts as cell-based, human. To be noted: SKNBE2 cells expressing hAPP695, 18 hours incubation; for IC50: Homo sapiens, SKNBE2, 18 h, read-out: Cellular αlisa assay in SKNBE2 cells Aβ42 pIC50 (converted). On the procedure: (§1) In two αlisa assays the levels of Aβtotal and Aβ42 produced and secreted into the medium of human neuroblastoma SKNBE2 cells are quantified. The assay is based on the human neuroblastoma SKNBE2 expressing the wild type Amyloid Precursor Protein (hAPP695). The compounds are diluted and added to these cells, incubated for 18 hours and then measurements of Aβ42 and Aβtotal are taken. Aβtotal and Aβ42 are measured by sandwich αlisa. αlisa is a sandwich assay using biotinylated antibody AbN/25 attached to streptavidin coated beads and antibody Ab4G8 or cAb42/26 conjugated acceptor beads for the detection of Aβtotal and Aβ42 respectively. In the presence of Aβtotal or Aβ42, the beads come into close proximity. The excitation of the Donor beads provokes the release of singlet oxygen molecules that triggers a cascade of energy transfer in the Acceptor beads, resulting in light emission. Light emission is measured after 1 hour incubation (excitation at […] and emission at 615 nm).
(§2) From this an […] value (inhibitory concentration causing 50% inhibition of activity) can be obtained.

The test system of assay [3] is Aβtotal. Description: Cellular αlisa assay in SKNBE2 cells, Aβtotal. The following applies: SKNBE2 cells expressing hAPP695, 18 hours incubation; for IC50: Homo sapiens, SKNBE2, 18 h, read-out: Cellular αlisa assay in SKNBE2 cells Aβtotal pIC50 (converted). It counts as cell-based, human. On the procedure: as §1, §2
Assay [4] relates to Aβ42. Description: In vivo efficacy: brain Aβ42 lowering (ELISA). The following applies: 30 mg/kg, p.o., 4 h. after administration, soluble fraction. The arrangement: species or system mouse. The text has this: (§3) To determine whether acute administration of an Aβ42 peptide lowering agent would reduce Aβ peptide levels in vivo, non-transgenic rodents, e.g. mice or rats were used. Animals treated with the Aβ peptide lowering agent were examined and compared to those untreated or treated with vehicle and brain levels of soluble Aβ42 and total Aβ were quantitated by standard techniques, for example, using ELISA. Treatment periods varied from hours (h) to days and were adjusted based on the results of the Aβ42 lowering once a time course of onset of effect could be established.
(§4) A typical protocol for measuring Aβ42 lowering in vivo is shown but it is only one of many variations that could be used to optimize the levels of detectable Aβ. […] After a certain time, usually 2 or 4 h (as indicated in Table 7), the animals were sacrificed and Aβ42 levels were analysed.
(§5) Blood was collected by decapitation and exsanguinations in EDTA-treated collection tubes. […] The left hemisphere was stored at −18° C. for quantitative analysis of test compound levels. […]
(§6) Mouse brains from non-transgenic animals were resuspended in 8 volumes of 0.4% DEA (diethylamine)/50 mM NaCl containing protease inhibitors (Roche-11873580001 or 04693159001) per gram of tissue, e.g. for 0.158 g brain, add 1.264 ml of 0.4% DEA. […] Nine parts of supernatant were neutralized with 1 part 0.5 M Tris-HCl pH 6.8 and used to quantify Aβtotal and Aβ42. […]
(In general: An ELISA detects its analyte on a solid surface through an enzyme-linked reagent.)

Assay [5] has as its system Aβtotal. As to the kind of experiment: In vivo efficacy: brain Aβtotal lowering (ELISA). The following applies: 30 mg/kg, p.o., 4 h. after administration, soluble fraction. The arrangement: species or system mouse.
Source text: as §3, §4, §5, §6

Sequence of BACE1 (P56817 46-501): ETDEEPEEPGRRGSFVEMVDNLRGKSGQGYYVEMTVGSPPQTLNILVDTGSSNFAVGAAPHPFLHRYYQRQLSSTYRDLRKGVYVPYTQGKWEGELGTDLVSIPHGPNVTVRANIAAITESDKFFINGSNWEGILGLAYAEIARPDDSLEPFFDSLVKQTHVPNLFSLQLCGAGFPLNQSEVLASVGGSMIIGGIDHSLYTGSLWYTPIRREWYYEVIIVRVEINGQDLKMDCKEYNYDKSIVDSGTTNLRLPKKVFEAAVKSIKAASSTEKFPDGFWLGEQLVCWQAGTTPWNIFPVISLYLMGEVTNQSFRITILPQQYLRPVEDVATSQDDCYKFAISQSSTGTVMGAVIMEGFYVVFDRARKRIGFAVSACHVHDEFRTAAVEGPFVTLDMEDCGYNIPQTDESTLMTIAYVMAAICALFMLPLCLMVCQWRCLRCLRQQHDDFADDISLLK

On to `C[C@@]1(c2cc(NC(=O)c3ccc(F)cn3)ccc2F)Cn2cc(F)cc2C(N)=N1` [Compound 7, (R)-5-Fluoro-pyridine-2-carboxylic acid [3-(1-amino-7-fluoro-3-methyl-3,4-dihydro-pyrrolo[1,2-a]pyrazin-3-yl)-4-fluoro-phenyl]-amide], for which the values for the IC50 in assay [1], in assay [2] and in assay [3] were 41.7 nM, 6.61 nM and 5.62 nM, respectively. For the same compound, the “Aβ42 (%Ctrl)_Mean” value in assay [4] was 73 %Ctrl. In addition, the “Aβtotal (%Ctrl)_Mean” value in assay [5] is on record as 99 %Ctrl.

On to `C[C@@]1(c2cc(NC(=O)c3ccn(C(F)F)n3)ccc2F)Cn2cc(C(F)(F)F)cc2C(N)=N1` [Compound 10], for which the IC50 in assay [1] was 47.9 nM; in assay [2], 13.5 nM; in assay [3], 12.6 nM.

With `NC1=NC(c2cc(NC(=O)c3ccc(F)cn3)ccc2F)(C(F)F)Cn2cccc21` (centres unmarked) [Compound 14], the values for the IC50 in assay [1], in assay [2] and in assay [3] were 174 nM, 37.2 nM and 35.5 nM, respectively.

Turning to `C[C@@]1(c2cc(NC(=O)c3ncc(C#N)cc3F)ccc2F)Cn2cc(C(F)(F)F)cc2C(N)=N1` [Compound 15], the IC50 in assay [1] is 36.3 nM; in assay [2] it was 9.33 nM; in assay [3] it was 8.91 nM.

Take `Cc1nc(C(=O)Nc2ccc(F)c([C@]3(C)Cn4cc(F)cc4C(N)=N3)c2)co1` [Compound 16]: the figures for the IC50 in assay [1], in assay [2] and in assay [3] were 49 nM, 20.4 nM and 19.5 nM, respectively.

Regarding `Cc1nc(C(=O)Nc2ccc(F)c([C@]3(C)Cn4cc(F)cc4C(N)=N3)c2)c(C)o1` [Compound 17], the IC50 in assay [1] was 67.6 nM; in assay [2], 32.4 nM; in assay [3], 33.9 nM.

Turning to `Cc1nc(C(=O)Nc2ccc(F)c([C@]3(C)Cn4cc(F)cc4C(N)=N3)c2)c(C(F)(F)F)o1` [Compound 18], the IC50 was 83.2 nM in assay [1], 31.6 nM in assay [2] and 30.9 nM in assay [3].

`Cc1nc(C(=O)Nc2ccc(F)c([C@]3(C)Cn4cc(C(F)(F)F)cc4C(N)=N3)c2)c(C)o1` [Compound 19]: the IC50 in assay [1] is 178 nM; in assay [2], 66.1 nM; in assay [3], 63.1 nM.

Take `Cc1nc(C(=O)Nc2ccc(F)c([C@]3(C)Cn4cc(C(F)(F)F)cc4C(N)=N3)c2)co1` [Compound 20]: the values for the IC50 in assay [1], in assay [2] and in assay [3] were 102 nM, 24 nM and 23.4 nM, respectively.

As for `Cc1nc(C(=O)Nc2ccc(F)c([C@]3(C)Cn4cc(C(F)(F)F)cc4C(N)=N3)c2)co1` [Compound 21], the IC50 in assay [1] was 95.5 nM. The “Cellular αlisa assay in SKNBE2 cells Aβ42 pIC50” value in assay [2] amounted to 7.83. The “Cellular αlisa assay in SKNBE2 cells Aβtotal pIC50” value in assay [3] came to 7.79.

Take `C[C@@]1(c2cc(NC(=O)c3ccsn3)ccc2F)Cn2cc(C(F)(F)F)cc2C(N)=N1` [Compound 22]: the IC50 in assay [1] is 224 nM; in assay [2] it was 49 nM; in assay [3], 47.9 nM.

As for `Cc1nc(C(=O)Nc2ccc(F)c([C@]3(C)Cn4cc(C(F)(F)F)cc4C(N)=N3)c2)c(C(F)(F)F)o1` [Compound 23], the values for the IC50 in assay [1], in assay [2] and in assay [3] were 182 nM, 75.9 nM and 77.6 nM, respectively.

As for `COCC1(c2cc(NC(=O)c3cnc(OC)cn3)ccc2F)Cn2cc(C(F)(F)F)cc2C(N)=N1` (centres unmarked) [Compound 24], the IC50 in assay [1] was 3160 nM. In addition, in assay [2], the “Cellular αlisa assay in SKNBE2 cells Aβ42 pIC50” value was determined as 6.30. In addition, the “Cellular αlisa assay in SKNBE2 cells Aβtotal pIC50” value in assay [3] is given as 6.35.

Turning to `COCC1(c2cc(NC(=O)c3ccc(F)cn3)ccc2F)Cn2cc(C(F)(F)F)cc2C(N)=N1` (centres unmarked) [Compound 25], in assay [1], the IC50 was 5010 nM. Besides, the “Cellular αlisa assay in SKNBE2 cells Aβ42 pIC50” value in assay [2] is recorded as 6.04. The “Cellular αlisa assay in SKNBE2 cells Aβtotal pIC50” value in assay [3] amounted to 6.07.

As to `COCC1(c2cc(NC(=O)c3ccn(C(F)F)n3)ccc2F)Cn2cc(C(F)(F)F)cc2C(N)=N1` (centres unmarked) [Compound 26], the IC50 is 2880 nM in assay [1], 501 nM in assay [2] and 537 nM in assay [3].

For the compound `COCC1(c2cc(NC(=O)c3cnc(OC)cn3)ccc2F)Cn2cc(C(F)(F)F)cc2C(N)=N1` (centres unmarked) [Compound 27], the IC50 in assay [1] was greater than 50100 nM. Further, the “Cellular αlisa assay in SKNBE2 cells Aβ42 pIC50” value in assay [2] is less than 5. Further, in assay [3], the “Cellular αlisa assay in SKNBE2 cells Aβtotal pIC50” value was less than 5.

For `COCC1(c2cc(NC(=O)c3cnc(OC)cn3)ccc2F)Cn2cc(C(F)(F)F)cc2C(N)=N1` (centres unmarked) [Compound 28], the IC50 in assay [1] is 1910 nM. In assay [2], the “Cellular αlisa assay in SKNBE2 cells Aβ42 pIC50” value amounted to 6.53. Moreover, the “Cellular αlisa assay in SKNBE2 cells Aβtotal pIC50” value in assay [3] amounted to 6.52.

Turning to `COCC1(c2cc(NC(=O)c3ccc(F)cn3)ccc2F)Cn2cc(C(F)(F)F)cc2C(N)=N1` (centres unmarked) [Compound 29], the IC50 in assay [1] is 2040 nM. Also, in assay [2], the “Cellular αlisa assay in SKNBE2 cells Aβ42 pIC50” value is 6.32. Besides, the “Cellular αlisa assay in SKNBE2 cells Aβtotal pIC50” value in assay [3] came to 6.33.

In the case of `COCC1(c2cc(NC(=O)c3ccc(F)cn3)ccc2F)Cn2cc(C(F)(F)F)cc2C(N)=N1` (centres unmarked) [Compound 30], the IC50 in assay [1] was 34700 nM. For the same compound, the “Cellular αlisa assay in SKNBE2 cells Aβ42 pIC50” value in assay [2] is less than 5. Also, the “Cellular αlisa assay in SKNBE2 cells Aβtotal pIC50” value in assay [3] is reported as less than 5.
